ChEMBL document CHEMBL1221367, “A new series of macrolide derivatives with 4''-O-saccharide substituents” (2010)
Converted amounts (≈) assume the structure as drawn.

Columns and labels:
Format in all cases: functional
Streptococcus pyogenes [1] = test: Antibacterial activity against erythromycin-resistant Streptococcus pyogenes 8902 expressing ermB by the broth microdilution method
Streptococcus pyogenes [2] = test: Antibacterial activity against Streptococcus pyogenes ERSPy-1 expressing mef by the broth microdilution method
Staphylococcus aureus [3] = test: Antibacterial activity against methicillin-susceptible Staphylococcus aureus ATCC 29213 by the broth microdilution method
Streptococcus pneumoniae [4] = test: Antibacterial activity against erythromycin-resistant Streptococcus pneumoniae ERSP-2 expressing ermB and mef by the broth microdilution method
[5] = tested on: Staphylococcus epidermidis; test: Antibacterial activity against methicillin-resistant Staphylococcus epidermidis MRSE-1 by the broth microdilution method
Staphylococcus aureus [6] = test: Antibacterial activity against methicillin-resistant Staphylococcus aureus BK2464 by the broth microdilution method
Streptococcus pyogenes [7] = test: Ratio of compound MIC to clarithromycin MIC for Streptococcus pyogenes ERSPy-1 expressing mef
Streptococcus pyogenes [8] = test: Ratio of compound MIC to clarithromycin MIC for erythromycin-resistant Streptococcus pyogenes 8902 expressing ermB
Streptococcus pneumoniae [9] = test: Ratio of compound MIC to clarithromycin MIC for erythromycin-resistant Streptococcus pneumoniae ERSP-2 expressing ermB and mef

| Compound | MIC (Streptococcus pyogenes [1]) [µg/mL] | MIC (Streptococcus pyogenes [2]) [µg/mL] | MIC (Staphylococcus aureus [3]) [µg/mL] | MIC (Streptococcus pneumoniae [4]) [µg/mL] | MIC [5] [µg/mL] | MIC (Staphylococcus aureus [6]) [µg/mL] | Ratio (Streptococcus pyogenes [7]) | Ratio (Streptococcus pyogenes [8]) | Ratio (Streptococcus pneumoniae [9]) |
| --- | --- | --- | --- | --- | --- | --- | --- | --- | --- |
| CC[C@H]1OC(=O)[C@H](C)[C@@H](O[C@H]2C[C@@](C)(OC)[C@@H](O)[C@H](C)O2)[C@H](C)[C@@H](O[C@@H]2O[C@H](C)C[C@H](N(C)C)[C@H]2O)[C@](C)(OC)C[C@@H](C)C(=O)[C@H](C)[C@@H](O)[C@]1(C)O [CLARITHROMYCIN] | 32 (≈ 42.8 µM) | 2 (≈ 2.67 µM) | 0.25 (≈ 0.334 µM) | 16 (≈ 21.4 µM) | 16 (≈ 21.4 µM) | > 32 |  |  |  |
| CC[C@H]1OC(=O)[C@H](C)[C@@H](O[C@H]2C[C@@](C)(OC)[C@@H](O[C@@H]3O[C@@H]4COC(c5ccccc5)O[C@H]4[C@H](O)[C@H]3O)[C@H](C)O2)[C@H](C)[C@@H](O[C@@H]2O[C@H](C)C[C@H](N(C)C)[C@H]2O)[C@](C)(OC)C[C@@H](C)C(=O)[C@H](C)[C@H]2N(CCCCn3cnc4ncccc43)C(=O)O[C@]12C (stereo not given in full) | 8 (≈ 6.69 µM) | 2 (≈ 1.67 µM) | 4 (≈ 3.34 µM) | 1 (≈ 0.836 µM) | 4 (≈ 3.34 µM) | > 16 |  |  |  |
| CC[C@H]1OC(=O)[C@H](C)[C@@H](O[C@H]2C[C@@](C)(OC)[C@@H](O[C@@H]3O[C@@H]4COC(c5ccccc5)O[C@H]4[C@H](O)[C@H]3O)[C@H](C)O2)[C@H](C)[C@@H](O[C@@H]2O[C@H](C)C[C@H](N(C)C)[C@H]2O)[C@](C)(OC)C[C@@H](C)C(=O)[C@H](C)[C@H]2N(CCCCn3cnc4cccnc43)C(=O)O[C@]12C (stereo not given in full) | 4 (≈ 3.34 µM) | 0.5 (≈ 0.418 µM) | 4 (≈ 3.34 µM) | 2 (≈ 1.67 µM) | 4 (≈ 3.34 µM) | > 16 | 4 | 8 | 8 |
| CC[C@H]1OC(=O)[C@H](C)[C@@H](O[C@H]2C[C@@](C)(OC)[C@@H](O[C@@H]3O[C@H](CO)[C@@H](O)[C@H](O)[C@H]3O)[C@H](C)O2)[C@H](C)[C@@H](O[C@@H]2O[C@H](C)C[C@H](N(C)C)[C@H]2O)[C@](C)(OC)C[C@@H](C)C(=O)[C@H](C)[C@H]2N(CCCCn3cnc4cccnc43)C(=O)O[C@]12C | 16 (≈ 14.4 µM) | 16 (≈ 14.4 µM) | > 16 | 8 (≈ 7.22 µM) | > 16 | > 16 |  |  |  |
| CC[C@H]1OC(=O)[C@H](C)[C@@H](O[C@H]2C[C@@](C)(OC)[C@@H](O[C@H]3O[C@H](COC(C)=O)[C@@H](OC(=O)c4ccccc4)[C@H](OC(C)=O)[C@H]3OC(C)=O)[C@H](C)O2)[C@H](C)[C@@H](O[C@@H]2O[C@H](C)C[C@H](N(C)C)[C@H]2O)[C@](C)(OC)C[C@@H](C)C(=O)[C@H](C)[C@@H](O)[C@]1(C)O | 16 (≈ 14 µM) | 1 (≈ 0.877 µM) | 16 (≈ 14 µM) | 16 (≈ 14 µM) | 16 (≈ 14 µM) | > 16 |  |  |  |
| CC[C@H]1OC(=O)[C@H](C)[C@@H](O[C@H]2C[C@@](C)(OC)[C@@H](O[C@@H]3O[C@H](COC(=O)c4ccccc4)[C@@H](O)[C@H](O)[C@H]3OC(C)=O)[C@H](C)O2)[C@H](C)[C@@H](O[C@@H]2O[C@H](C)C[C@H](N(C)C)[C@H]2O)[C@](C)(OC)C[C@@H](C)C(=O)[C@H](C)[C@@H](O)[C@]1(C)O | 16 (≈ 15.1 µM) | 8 (≈ 7.57 µM) | 16 (≈ 15.1 µM) | 8 (≈ 7.57 µM) | 16 (≈ 15.1 µM) | > 16 |  |  |  |
| CC[C@H]1OC(=O)[C@H](C)C(=O)[C@H](C)[C@@H](O[C@@H]2O[C@H](C)C[C@H](N(C)C)[C@H]2O)[C@](C)(OC)C[C@@H](C)C(=O)[C@H](C)[C@H]2N(CCCCn3cnc(-c4cccnc4)c3)C(=O)O[C@]12C [TELITHROMYCIN] | 0.25 (≈ 0.308 µM) | 0.25 (≈ 0.308 µM) | 0.125 (≈ 0.154 µM) | 0.125 (≈ 0.154 µM) | 0.125 (≈ 0.154 µM) | > 32 |  |  |  |
| CC[C@H]1OC(=O)[C@H](C)[C@@H](O[C@H]2C[C@@](C)(OC)[C@@H](O[C@@H]3O[C@H](COC(=O)c4ccccc4)[C@@H](OC(=O)c4ccccc4)[C@H](OC(C)=O)[C@H]3OC(C)=O)[C@H](C)O2)[C@H](C)[C@@H](O[C@@H]2O[C@H](C)C[C@H](N(C)C)[C@H]2O)[C@](C)(OC)C[C@@H](C)C(=O)[C@H](C)[C@@H](O)[C@]1(C)O | 16 (≈ 13.3 µM) | 8 (≈ 6.65 µM) | > 16 | 16 (≈ 13.3 µM) | 16 (≈ 13.3 µM) | > 16 |  |  |  |
| CC[C@H]1OC(=O)[C@H](C)[C@@H](O[C@H]2C[C@@](C)(OC)[C@@H](O[C@@H]3O[C@H](CO)[C@@H](O[C@H]4O[C@@H](CO)[C@H](O)[C@@H](O)[C@@H]4O)[C@H](O)[C@H]3O)[C@H](C)O2)[C@H](C)[C@@H](O[C@@H]2O[C@H](C)C[C@H](N(C)C)[C@H]2O)[C@](C)(OC)C[C@@H](C)C(=O)[C@H](C)[C@@H](O)[C@]1(C)O | > 16 | > 16 | > 16 | 16 (≈ 14.9 µM) | > 16 | > 16 |  |  |  |
| CC[C@H]1OC(=O)[C@H](C)[C@@H](O[C@H]2C[C@@](C)(OC)[C@@H](O[C@@H]3O[C@H](CO)[C@@H](O)[C@H](O)[C@H]3OC(C)=O)[C@H](C)O2)[C@H](C)[C@@H](O[C@@H]2O[C@H](C)C[C@H](N(C)C)[C@H]2O)[C@](C)(OC)C[C@@H](C)C(=O)[C@H](C)[C@@H](O)[C@]1(C)O | > 16 | 16 (≈ 16.8 µM) | > 16 | 16 (≈ 16.8 µM) | > 16 | > 16 |  |  |  |
| CC[C@H]1OC(=O)[C@H](C)[C@@H](O[C@H]2C[C@@](C)(OC)[C@@H](O[C@@H]3O[C@H](CO)[C@@H](O)[C@H](O)[C@H]3O)[C@H](C)O2)[C@H](C)[C@@H](O[C@@H]2O[C@H](C)C[C@H](N(C)C)[C@H]2O)[C@](C)(OC)C[C@@H](C)C(=O)[C@H](C)[C@H]2N(CCCCn3cnc4ncccc43)C(=O)O[C@]12C | 16 (≈ 14.4 µM) | 8 (≈ 7.22 µM) | > 16 | 8 (≈ 7.22 µM) | > 16 | > 16 |  |  |  |
| CC[C@H]1OC(=O)[C@H](C)[C@@H](O[C@H]2C[C@@](C)(OC)[C@@H](O[C@@H]3O[C@H](CO)[C@@H](O)[C@H](O)[C@H]3O)[C@H](C)O2)[C@H](C)[C@@H](O[C@@H]2O[C@H](C)C[C@H](N(C)C)[C@H]2O)[C@](C)(OC)C[C@@H](C)C(=O)[C@H](C)[C@@H](O)[C@]1(C)O | 16 (≈ 17.6 µM) | 16 (≈ 17.6 µM) | > 16 | 16 (≈ 17.6 µM) | 16 (≈ 17.6 µM) | > 16 |  |  |  |
